Test results from patent publication US11884956B2, “Methods for detecting mycobacteria with solvatochromic dye conjugates” (priority 2016, dated 2024).

How the values were obtained:
[1] = tested on: Mycobacterium marinum (Mm); experiment: No-wash imaging of M. marinum by DMN-Tre and 6-FITre; type: cell-based; details: 100 μM, 6 hours, imaged without washing; FIG. 9A
[2] = tested on: Corynebacterium glutamicum (Cg); experiment: No-wash imaging of Cg by DMN-Tre and 6-FITre; type: cell-based
[3] = tested on: Mycobacterium smegmatis (Msmeg); experiment: No-wash imaging of Msmeg by DMN-Tre and 6-FITre; type: cell-based; details: 100 μM, 1 hour, imaged without washing; FIG. 9A
[4] = tested on: Mtb cells in TB-positive patient sputum samples; experiment: Microscopy analysis of Mtb in sputum samples / Auramine vs DMN-Tre smear test; type: cell-based, Mycobacterium tuberculosis; details: for detection of Mtb cells in split sputum samples: DMN-Tre 30 minutes or Auramine O standard kit protocol, FIGS. 17B-D
[5] = tested on: Mtb cells; experiment: Labeling of drug-treated Mtb; type: cell-based, Mycobacterium tuberculosis; details: drug cocktail 3 hours before staining; FIGS. 15C and 15D
[6] = tested on: Msmeg; experiment: Flow cytometry of metabolically labeled Msmeg; type: cell-based, Mycobacterium smegmatis
[7] = tested on: Msmeg deficient in Ag85A; experiment: DMN-Tre labeling of Msmeg deficient in Ag85A; type: cell-based, Mycobacterium smegmatis; details: FIG. 12F
[8] = tested on: Escherichia coli (Ec); experiment: Labeling of non-mycomembrane bearing bacteria (Ec); type: cell-based; details: 100 μM, 37° C., 2 h; FIG. 11A
Procedure: (§1) Lm, Bs, Ec, and Sa were grown from single colonies at 37° C. overnight. The bacteria were diluted to an OD600 of 0.4. To 1 mL aliquots of these bacteria, 10 μL of 10 mM DMN-Tre was added to reach a final concentration of 100 μM. The cells were then incubated at 37° C. for 2 h. Aliquots were taken and the cells were imaged under a coverslip. As controls, cells from the same OD600=0.4 culture, without the addition of DMN-Tre, were also imaged.

[9] = tested on: Staphylococcus aureus (Sa); experiment: Labeling of non-mycomembrane bearing bacteria (Sa); type: cell-based; details: 100 μM, 37° C., 2 h; FIG. 11A
Procedure: as §1

[10] = tested on: Msmeg; experiment: No-wash labeling of Msmeg over time; type: cell-based, Mycobacterium smegmatis; details: FIG. 10
Procedure: (§2) Msmeg or Cg cells were grown to an OD600 of 0.5 from a single colony as above. To 200 μL of culture was added 2 μL of 10 mM DMN-Tre in H2O. Aliquots were taken from this culture at the indicated time points, immediately placed under a coverslip, and imaged.

[11] = Absorbance and fluorescence measurements of DMN-Tre; type: physicochemical
Procedure: One μL of 10 mM DMN-Tre in H2O was added to 1 mL of mixtures of dioxane and water at different ratios. Absorbance spectra were recorded on a Varian Cary 50 UV-Visible spectrophotometer. Fluorescence spectra were recorded on a Photon Technology International Quanta Master 4 L-format scanning spectrofluorometer equipped with an LPS-220B 75-W xenon lamp and power supply, an A-1010B lamp housing with an integrated igniter, a switchable 814 photon counting/analog photomultiplier detection unit, and an MD5020 motor driver. Measurements were made in 1 cm×0.4 cm quartz cuvettes with a total sample volume of 1 mL.

[12] = tested on: Mtb (H37Rv); experiment: Axenic MTB culture time-course experiment; type: cell-based, Mycobacterium tuberculosis
[13] = tested on: Listeria monocytogenes (Lm); experiment: Labeling of non-mycomembrane bearing bacteria (Lm); type: cell-based; details: 100 μM, 37° C., 2 h; FIG. 11A
Procedure: as §1

[14] = tested on: Msmeg trehalose transporter mutants; type: cell-based, Mycobacterium smegmatis; details: panel of trehalose transporter mutants
[15] = tested on: M. smegmatis; experiment: Trehalose competition of DMN-Tre labeling in M. smegmatis; type: cell-based, Mycobacterium smegmatis; details: 1 hour, FIG. 12D
Procedure: Then, the bacteria were divided into 100 μL aliquots. To these aliquots was added 1 μL of 10 mM DMN-Tre and 1 μL of 0, 10 or 100 mM trehalose in water.

[16] = tested on: Msmeg expressing mCherry; experiment: Selective labeling of Msmeg in the presence of other bacterial species; type: cell-based, Mycobacterium smegmatis; details: 1:10 mycobacteria/other bacteria (Bs, Ec, Lm, Sa), Hoechst dye, one hour, no wash; FIG. 11B
Procedure: Bacteria (Lm, Bs, Ec, and Sa) were grown overnight with shaking in media as noted above. The bacteria were diluted to OD600=0.5, then 500 μL of each culture were mixed together to create 2 mL of mixed bacteria. One mL of Msmeg expressing mCherry was grown from a single colony overnight to OD600 of 0.5. Both cultures were pelleted by centrifugation (3 min, 3,300×g) and resuspended in an identical volume of LB medium. To 540 μL of mix, 60 μL of Msmeg was added. Lastly, this final mixture of bacteria containing Msmeg and the four other non-mycomembrane bearing bacterial species was split into two 300 μL aliquots. To each group, 0.3 μL of 2 mg/mL Hoechst DNA stain (Thermo Fisher Scientific, 62249) was added to stain all the bacteria. To one of the two aliquots, 3 μL of 10 mM DMN-Tre were added, while no DMN-Tre was added to the other portion. The two aliquots were incubated with shaking at 37° C. for 1 h before a sample was taken out and imaged without washing.

[17] = tested on: Cg; experiment: No-wash labeling of Cg over time; type: cell-based, Corynebacterium glutamicum; details: FIG. 10
Procedure: as §2

[18] = tested on: Bacillus subtilis (Bs); experiment: Labeling of non-mycomembrane bearing bacteria (Bs); type: cell-based; details: 100 μM, 37° C., 2 h; FIG. 11A
Procedure: as §1

[19] = tested on: heat-killed Msmeg cells; experiment: DMN-Tre labeling of heat-killed Msmeg; details: FIGS. 13A and 13B
[20] = Stability of DMN-Tre; type: physicochemical; details: bench or shipping containers at room temperature; aqueous solution at 37° C.
[21] = tested on: ΔkatG mutant of Msmeg; type: cell-based, Mycobacterium smegmatis; details: FIG. 14C
[22] = tested on: wild-type Msmeg; experiment: DMN-Tre labeling after isoniazid treatment, wild-type; type: cell-based, Mycobacterium smegmatis; details: FIG. 14C
[23] = 100 μM, 2 hours, imaged without washing, FIG. 9A
[24] = 100 μM, exponential growth phase, first time point

SMILES: O=C(O)c1cc(NC(=S)NC[C@H]2O[C@H](O[C@H]3O[C@H](CO)[C@@H](O)[C@H](O)[C@H]3O)[C@H](O)[C@@H](O)[C@@H]2O)ccc1-c1c2ccc(=O)cc-2oc2cc(O)ccc12 [6-FITre, 6-fluorescein-trehalose, reference compound]
- background fluorescence of free probe in surrounding solution [1]: obscured by fluorescence of the probe in the surrounding solution
- background fluorescence of free probe in surrounding solution [2, 23]: obscured by fluorescence of the probe in the surrounding solution
- background fluorescence of free probe in surrounding solution [3]: obscured by fluorescence of the probe in the surrounding solution

SMILES: CN(C)c1ccc(C(=N)c2ccc(N(C)C)cc2)cc1.Cl [Auramine O, reference compound]
- detection of Mtb cells in split sputum samples [4]: detected
- labeling after prior drug cocktail treatment [5]: unaffected

SMILES: COC1OC(CN2C(=O)c3cccc4c(N(C)C)ccc(c34)C2=O)C(O)C(O)C1O (stereo not drawn) [DMN-Glc, DMN-glucose]
- labeling of Msmeg ([6]; FIG. 12C): did not label Msmeg

SMILES: CN(C)c1ccc2c3c(cccc13)C(=O)N(C[C@H]1O[C@H](O[C@H]3O[C@H](CO)[C@@H](O)[C@H](O)[C@H]3O)[C@H](O)[C@@H](O)[C@@H]1O)C2=O [DMN-Tre, 4-N,N-dimethylamino-1,8-naphthalimide-conjugated trehalose]
- DMN-Tre labeling versus wild-type [7]: reduced labeling compared to wild-type
- time to detection of mycobacteria in TB patient sputum samples [4]: under an hour
- fluorescent Mtb cells in sputum samples ([4]; 16 treatment-naïve TB-positive patients, 2-hour incubation, FIGS. 17A and D): readily visible in all samples
- detection of Mtb cells in split sputum samples [4]: detected
- Mtb cells detected in sputum compared with Auramine O ([4]; visibly stained cells over 8 fields of view per sample, 16 sputum samples, FIG. 17C): performed similarly to Auramine O
- fluorescence labeling without washing [8]: none of the non-mycobacterial strains show any detectable fluorescence labeling
- labeling after prior drug cocktail treatment [5]: inhibited
- fluorescence labeling without washing [9]: none of the non-mycobacterial strains show any detectable fluorescence labeling
- time point at which labeling was already visible [10, 24]: ≤ 5 min
- time by which cells were uniformly labeled [10]: ≤ 1 h
- labeling pattern at earliest time point ([10]; earliest time point): fluorescence only at the polar regions
- enhancement in fluorescence intensity when dissolved in organic solvent versus water [11]: ~700 fold
- labeling of liquid cultures ([12]; FIG. 15A): visibly labeled
- cells labeled ([12]; liquid cultures, within 30 minutes, FIG. 15B): > 65%
- labeling over time ([12]; overnight (˜16 h), FIG. 15B): continued to intensify overnight
- fluorescence labeling without washing [13]: none of the non-mycobacterial strains show any detectable fluorescence labeling
- DMN-Tre incorporation versus wild-type [14]: comparable to wild-type
- DMN-Tre labeling in the presence of excess trehalose [15]: reduced
- background fluorescence of free probe in surrounding solution [1]: no discernible background fluorescence
- fluorescence labeling, no-wash imaging [1]: Bright fluorescence labeling
- labeling in mixed bacterial culture [16]: Bright, specific, DMN-Tre labeling of only Msmeg cells
- fluorescence signal of labeled cells by filter set ([6]; 100 μM DMN-Tre, 1 h, excited at wavelengths closer to 400 nm (405 nm vs 488 nm excitation), FIG. 9B): higher fluorescence signal over control samples
- time to significant fluorescence over background ([6]; flow cytometry, FIG. 12A): ≤ 20 min
- cells labeled ([6]; within 30 minutes, flow cytometry, FIG. 12B): > 70%
- background fluorescence of free probe in surrounding solution [2, 23]: no discernible background fluorescence
- fluorescence labeling, no-wash imaging [2, 23]: Bright fluorescence labeling
- fluorescence labeling in the selectivity experiment ([2]; same experiment as the non-mycobacterial strains, FIG. 11A): labeled brightly
- time point at which labeling was already visible [17, 24]: ≤ 3 min
- labeling pattern at earliest time point ([17]; earliest time point): even cell surface labeling
- fluorescence labeling without washing [18]: none of the non-mycobacterial strains show any detectable fluorescence labeling
- labeling after heat killing [19]: abrogated
- background fluorescence of free probe in surrounding solution [3]: no discernible background fluorescence
- fluorescence labeling, no-wash imaging [3]: Bright fluorescence labeling
- stability [20]: very stable on the bench or in shipping containers for weeks at room temperature, and even in aqueous solution at 37 °C

SMILES: NNC(=O)c1ccncc1 [isoniazid]
- effect of isoniazid treatment on DMN-Tre labeling [21]: unaffected
- effect of isoniazid treatment on DMN-Tre labeling [22]: not wild-type Msmeg, was unaffected
